The values below come from publication PMC10636135, “Computational design of highly efficient thermostable MHET hydrolases and dual enzyme system for PET recycling” (Communications Biology, 2023).

The structures appear in SMILES notation.

In assay [1] the test system is T1, KL36F (fusion of KL-MHETase and FAST-PETase).
T1 construct: gene est; order judged from name; FAST-PETase moiety also hydrolyses MHET weakly; with Poly(ethylene terephthalate) hydrolase
Description: initial rates, TPA by HPLC, Michaelis-Menten fit. In kind it is biochemical, Geobacillus stearothermophilus. The conditions noted are these: 50 mM sodium phosphate, pH 7.5, 50 °C.

The target of assay [2] is T2, 1EVQ (thermostable scaffold) (Alicyclobacillus acidocaldarius, UniProt Q7SIG1).
T2 construct: synthesized codon-optimized gene, pET-22b(+), E. coli BL21(DE3); named only by PDB code
Description: relative MHET hydrolysis activity. In kind it is biochemical. The conditions noted are these: 4.8 mM MHET, 0.25 μM enzyme, 50 mM sodium phosphate, pH 7.5, 50 °C, 10 min.

Broadly, the Km is the concentration of substrate that gives half-maximal velocity. On to `O=C(O)c1ccc(C(=O)OCCO)cc1` [MHET], for which the Km in assay [1] turned out to be 4.52 ± 0.67 mM. In addition, the relative activity in assay [2] was 1EVQ and 1TQH, exhibited apparent activity with regard to MHET hydrolysis.
